Counter-ions that a name gives are not always drawn.
Experiments:
hBChE = biological target: T1, hBChE (Homo sapiens, UniProt P06276); test: biochemical; details: 100 μM compound; substrate BCThI
T1 construct: hBChE EC 3.1.1.8, 50 units mg^−1 from human erythrocytes; purchased Sigma-Aldrich; host or cells: human erythrocytes
Procedure: (§1) Buffer components and all of the chemicals used were all analytical grade materials, and were obtained from Sigma, Merck (Darmstadt, Germany), Synth (São Paulo, Brazil) or Acros (Geel, Belgium). The water used in all of the preparations was purified with a Millipore Milli-Q® system (Millipore, São Paulo, Brazil).
(§2) The ligand assays were carried out in accordance with the literature, albeit with some modifications. Briefly, the assays were carried out using a 96-well microplate with an Elisa microplate reader. To a final volume of 250 µL, each well was filled with: 125 µL of Ellman’s reagent (3 mM in […] phosphate buffer pH 7.4); 50 µL of buffer TRIS (50 mM, pH 8.0); 25 µL of enzyme solution at the final concentration 0.28 U/mL (in […] phosphate buffer pH 7.4); 25 µL of the ACThI (15 mM) for AChE and 25 µL of the BCThI (15 mM) for BChE; and 25 µL of each inhibitor sample (1 mM), final concentration at 100 µM. The microplate was shaken for 10 s followed by reading the absorbance at 412 nm at 30 s intervals for two minutes. The negative control (compound and absence of ACThI) and a positive control (ACThI and absence of compound) were carried out.
(§3) The assays were carried out in duplicate.

hAChE = biological target: T2, hAChE (Homo sapiens, UniProt P22303); test: biochemical; details: for inhibition at 100 µM: 100 μM compound, substrate ACThI; for inhibition at 100 µM / IC50: human recombinant hAChE; for IC50: at least six concentrations, read-out: IC50 ± SEM (μM) hAChE; for Ki: steady-state inhibition constant from replots of reciprocal plots, read-out: Ki ± SEM (μM) hAChE; for Mechanism Type hAChE: Lineweaver-Burk plots
T2 construct: purchased Sigma-Aldrich; host or cells: HEK 293 cells
T2 sequence (P22303 32-614): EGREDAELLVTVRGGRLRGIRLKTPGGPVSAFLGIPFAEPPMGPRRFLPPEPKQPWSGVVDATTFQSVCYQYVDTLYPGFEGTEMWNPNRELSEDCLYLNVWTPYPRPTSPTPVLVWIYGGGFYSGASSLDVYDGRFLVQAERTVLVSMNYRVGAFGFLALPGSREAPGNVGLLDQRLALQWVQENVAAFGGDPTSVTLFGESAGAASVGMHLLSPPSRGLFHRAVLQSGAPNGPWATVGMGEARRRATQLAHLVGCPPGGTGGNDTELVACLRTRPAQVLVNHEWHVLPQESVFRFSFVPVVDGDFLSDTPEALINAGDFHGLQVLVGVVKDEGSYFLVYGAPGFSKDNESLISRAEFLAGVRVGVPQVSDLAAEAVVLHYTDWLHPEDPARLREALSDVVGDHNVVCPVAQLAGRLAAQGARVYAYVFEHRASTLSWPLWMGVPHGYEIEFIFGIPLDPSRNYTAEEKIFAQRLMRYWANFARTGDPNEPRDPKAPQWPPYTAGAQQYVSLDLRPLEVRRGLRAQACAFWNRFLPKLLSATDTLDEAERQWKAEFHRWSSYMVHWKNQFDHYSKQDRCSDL
Procedure: as §1, §2, §3
IC50 values were independently determined by performing rate measurements for at least six concentrations of the target inhibitor. The nonlinear regression parameters were calculated, and the IC50 was extrapolated.

T1 sequence (P06276 29-602): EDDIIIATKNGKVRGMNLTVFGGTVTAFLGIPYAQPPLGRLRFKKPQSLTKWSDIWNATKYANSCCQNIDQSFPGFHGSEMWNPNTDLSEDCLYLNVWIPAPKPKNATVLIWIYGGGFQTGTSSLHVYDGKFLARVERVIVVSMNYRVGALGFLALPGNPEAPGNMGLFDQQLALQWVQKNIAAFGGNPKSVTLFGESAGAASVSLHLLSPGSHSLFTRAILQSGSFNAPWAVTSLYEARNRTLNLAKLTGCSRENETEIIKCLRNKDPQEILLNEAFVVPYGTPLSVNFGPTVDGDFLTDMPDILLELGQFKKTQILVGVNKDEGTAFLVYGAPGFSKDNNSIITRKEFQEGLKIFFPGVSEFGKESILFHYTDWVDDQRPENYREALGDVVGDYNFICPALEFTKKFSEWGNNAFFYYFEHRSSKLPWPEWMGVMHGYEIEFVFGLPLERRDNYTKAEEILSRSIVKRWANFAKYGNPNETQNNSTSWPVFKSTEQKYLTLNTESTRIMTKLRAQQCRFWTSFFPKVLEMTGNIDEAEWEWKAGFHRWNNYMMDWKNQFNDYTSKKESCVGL

Structure (SMILES) | inhibition at 100 µM (hBChE) [%] | inhibition at 100 µM (hAChE) [%] | IC50 (hAChE) [µM] | Ki (hAChE) [µM] | Mechanism Type hAChE (hAChE)
COc1cc2c(cc1OC)C(=O)C(CC1CCN(Cc3ccccc3)CC1)C2 (stereo not shown) [Donepezil, donepezil hydrochloride monohydrate, reference compound] | 11.1 |  |  |  | 
O=C1/C(=C/c2ccc(-c3cn(-c4ccnc5ccccc45)nn3)cc2)Cc2ccc(Cl)cc21 [3e, (E)-6-Chloro-2-(4-(1-(quinolin-4-yl)-1H-1,2,3-triazol-4-yl)benzylidene)-2,3-dihydro-1H-inden-1-one] | 0 | 37.7 | 147 ± 15 | 530 ± 150 | 
COc1ccc2c(c1)C(=O)/C(=C/c1ccc(-c3cn(-c4ccnc5ccccc45)nn3)cc1)C2 [3h, (E)-6-Methoxy-2-(4-(1-(quinolin-4-yl)-1H-1,2,3-triazol-4-yl)benzylidene)-2,3-dihydro-1H-inden-1-one] | 0 | 55.7 | 109 | 245 ± 70 | mixed-type
COc1cc2c(cc1OC)C(=O)/C(=C/c1ccc(-c3cn(-c4ccnc5ccccc45)nn3)cc1)C2 [3a, (E)-5,6-Dimethoxy-2-(4-(1-(quinolin-4-yl)-1H-1,2,3-triazol-4-yl)benzylidene)-2,3-dihydro-1H-inden-1-one] | 0 | 29 | 128 ± 25 | 185 ± 29 | 
Cc1ccc2c(c1)C(=O)/C(=C/c1ccc(-c3cn(-c4ccnc5ccccc45)nn3)cc1)C2 [3d, (E)-6-Methyl-2-(4-(1-(quinolin-4-yl)-1H-1,2,3-triazol-4-yl)benzylidene)-2,3-dihydro-1H-inden-1-one] | 0 | 9.1 |  |  | 
COc1cc2c(cc1Cl)C/C(=C\c1ccc(-c3cn(-c4ccnc5ccccc45)nn3)cc1)C2=O [3c, (E)-5-Chloro-6-methoxy-2-(4-(1-(quinolin-4-yl)-1H-1,2,3-triazol-4-yl)benzylidene)-2,3-dihydro-1H-inden-1-one] | 6.2 | 5.4 |  |  | 
COc1ccc2c(c1)C/C(=C\c1ccc(-c3cn(-c4ccnc5ccccc45)nn3)cc1)C2=O [3g, (E)-5-Methoxy-2-(4-(1-(quinolin-4-yl)-1H-1,2,3-triazol-4-yl)benzylidene)-2,3-dihydro-1H-inden-1-one] | 0.2 | 48.1 | 114 ± 10 | 220 ± 60 | mixed-type
O=C1C(=Cc2ccc(-c3cn(-c4ccnc5ccccc45)nn3)cc2)Cc2cc3c(cc21)OCO3 [3b, (E)-5,6-Methilenedioxy-2-(4-(1-(quinolin-4-yl)-1H-1,2,3-triazol-4-yl)benzylidene)-2,3-dihydro-1H-inden-1-one] | 5.2 | 0 |  |  | 
